From patent US7863276B2, “Salts of modulators of PPAR and methods of treating metabolic disorders” (KALYPSYS, Inc, priority 2005, dated 2011)

Columns and labels:
Type in all cases: cell-based, murine and human
PPARα = molecular target: T1, PPARα (UniProt Q07869); test: PPARα GAL4 chimera transactivation assay in CV-1 cells; details: transient transfection, luciferase reporter, 20-24 hours, read-out: PPAR alpha
T1 sequence (Q07869 1-468): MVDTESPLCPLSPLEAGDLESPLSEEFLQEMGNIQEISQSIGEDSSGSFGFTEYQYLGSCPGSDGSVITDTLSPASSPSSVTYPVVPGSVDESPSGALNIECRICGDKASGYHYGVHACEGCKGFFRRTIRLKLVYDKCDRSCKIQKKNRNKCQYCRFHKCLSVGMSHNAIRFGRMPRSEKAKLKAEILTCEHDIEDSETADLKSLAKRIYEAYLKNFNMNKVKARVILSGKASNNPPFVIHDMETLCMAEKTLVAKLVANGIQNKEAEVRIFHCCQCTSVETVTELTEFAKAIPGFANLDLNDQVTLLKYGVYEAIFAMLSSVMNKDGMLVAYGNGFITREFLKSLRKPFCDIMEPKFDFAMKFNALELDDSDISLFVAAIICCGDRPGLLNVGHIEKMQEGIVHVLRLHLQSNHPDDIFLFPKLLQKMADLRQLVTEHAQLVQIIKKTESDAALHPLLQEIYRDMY
From the text: (§1) Compounds were screened for functional potency in transient transfection assays in CV-1 cells for their ability to activate the PPAR subtypes (transactivation assay). A previously established chimeric receptor system was utilized to allow comparison of the relative transcriptional activity of the receptor subtypes on the same synthetic response element and to prevent endogenous receptor activation from complicating the interpretation of results. See, for example, Lehmann, J. M.; Moore, L. B.; Smith-Oliver, T. A; Wilkinson, W. O.; Willson, T. M.; Kliewer, S. A., An antidiabetic thiazolidinedione is a high affinity ligand for peroxisome proliferator-activated receptor […], J. Biol. Chem., 1995, 270, 12953-6. The ligand binding domains for murine and human PPARα, PPARγ, and PPARδ are each fused to the yeast transcription factor GAL4 DNA binding domain. CV-1 cells were transiently transfected with expression vectors for the respective PPAR chimera along with a reporter construct containing four or five copies of the GAL4 DNA binding site driving expression of luciferase. […] Luciferase activity was then assayed with Britelite (Perkin Elmer) following the manufacturer's protocol and measured with either the Perkin Elmer Viewlux or Molecular Devices Acquest (see, for example, Kliewer, S. A., et. al. Cell 1995, 83, 813-819). […]

PPARδ = molecular target: T2, PPARδ (UniProt Q03181); test: PPARδ GAL4 chimera transactivation assay in CV-1 cells; details: transient transfection, luciferase reporter, 20-24 hours, read-out: PPAR delta
T2 sequence (Q03181 1-441): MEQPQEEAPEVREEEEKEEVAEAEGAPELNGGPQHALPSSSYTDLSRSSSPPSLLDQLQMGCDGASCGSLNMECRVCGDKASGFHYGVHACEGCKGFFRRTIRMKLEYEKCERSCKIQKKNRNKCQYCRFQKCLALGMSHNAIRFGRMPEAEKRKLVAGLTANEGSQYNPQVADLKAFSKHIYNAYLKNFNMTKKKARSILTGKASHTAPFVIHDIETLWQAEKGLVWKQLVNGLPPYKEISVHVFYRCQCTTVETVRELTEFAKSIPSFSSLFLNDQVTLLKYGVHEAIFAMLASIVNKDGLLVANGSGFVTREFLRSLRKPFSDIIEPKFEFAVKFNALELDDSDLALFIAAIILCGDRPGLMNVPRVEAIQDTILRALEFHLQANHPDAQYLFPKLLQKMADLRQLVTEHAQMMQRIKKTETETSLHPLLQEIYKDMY
From the text: as §1

PPARγ = molecular target: T3, PPARγ (UniProt P37231); test: PPARγ GAL4 chimera transactivation assay in CV-1 cells; details: transient transfection, luciferase reporter, 20-24 hours, read-out: PPAR gamma
T3 sequence (P37231 1-505): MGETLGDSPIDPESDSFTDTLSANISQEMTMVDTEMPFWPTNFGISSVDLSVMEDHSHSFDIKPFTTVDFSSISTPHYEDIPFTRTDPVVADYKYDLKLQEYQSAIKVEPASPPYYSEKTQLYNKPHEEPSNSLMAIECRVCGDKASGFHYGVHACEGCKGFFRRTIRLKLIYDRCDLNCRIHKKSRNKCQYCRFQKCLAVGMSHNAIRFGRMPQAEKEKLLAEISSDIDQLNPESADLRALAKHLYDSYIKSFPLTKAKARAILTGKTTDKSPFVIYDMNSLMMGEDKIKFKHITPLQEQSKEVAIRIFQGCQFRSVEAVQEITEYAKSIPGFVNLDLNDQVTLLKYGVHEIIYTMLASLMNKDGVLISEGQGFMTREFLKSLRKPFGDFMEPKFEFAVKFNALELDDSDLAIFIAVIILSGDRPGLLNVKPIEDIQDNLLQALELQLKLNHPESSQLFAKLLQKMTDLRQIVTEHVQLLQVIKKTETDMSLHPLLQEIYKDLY
From the text: as §1

Compound | EC50 (PPARα) [µM] | EC50 (PPARδ) [µM] | EC50 (PPARγ) [µM]
C[C@@H]1CN(c2ccc(OC(F)(F)F)cc2)C[C@H](C)N1S(=O)(=O)c1cccc2c1C[C@@H](C(=O)O)C2 [Compound 1, (S)-4-[cis-2,6-Dimethyl-4-(4-trifluoromethoxy-phenyl)-piperazine-1-sulfonyl]-indan-2-carboxylic acid] | > 100 | < 5 | > 100
C[C@@H]1CN(Cc2ccc(OC(F)(F)F)cc2)C[C@H](C)N1S(=O)(=O)c1cccc2c1C[C@@H](C(=O)O)C2 [Compound 2, (S)-4-[cis-2,6-Dimethyl-4-(4-trifluoromethoxy-benzyl)-piperazine-1-sulfonyl]-indan-2-carboxylic acid] | > 100 | < 5 | 5 to 100
